# Values of other authors in patent US20050255458A1, “Drug discovery assays based on the biology of chronic disease” (priority 2002, published 2005).
# Read-outs that look alike come from different tables or passages of the source.
# Tests used:
# ERK1 and ERK2 = settings: 20 μm, 15 min; cited from earlier work
# NF-κB = settings: cited from earlier work
# [1] = system: ‘Langerhans’ cells in nasal mucosa; settings: topical; cited from earlier work
# DC = settings: inhaled; cited from earlier work
# ERK1/2 = settings: cited studies, various cells; cited from earlier work
# [2] = system: third intron enhancer of the TNFα gene; settings: PBMC stimulated with TPA; cited from earlier work
# AR gene [3] = settings: cited from earlier work
# [4] = system: ML-1 human myeloblastic leukemic cells; settings: cited from earlier work; for increase in ERK activity: 0.3 ng/ml
# anagen hair follicles = settings: cited from earlier work
# ERK [5] = settings: cited from earlier work
# ERK [6] = settings: LNCaP; cited from earlier work
# [7] = 0.3-0.5 mmol/kg/day, from day 56; cited from earlier work
# Rous sarcoma virus (RSV) = settings: cited from earlier work
# [8] = system: Moloney murine leukemia virus (MMuLV); settings: cited from earlier work
# AR gene [9] = settings: 50 μg/ml, 4 hours, 21-day-old rats; cited from earlier work
# TF = settings: cited from earlier work
# ACE [10] = target: T1, ACE (Mus musculus, UniProt P09470); settings: zofenopril 0.05 or 1, captopril 5, enalapril 0.5 mg/kg/day; 29 weeks; cited from earlier work
# T1 sequence (P09470 35-1312): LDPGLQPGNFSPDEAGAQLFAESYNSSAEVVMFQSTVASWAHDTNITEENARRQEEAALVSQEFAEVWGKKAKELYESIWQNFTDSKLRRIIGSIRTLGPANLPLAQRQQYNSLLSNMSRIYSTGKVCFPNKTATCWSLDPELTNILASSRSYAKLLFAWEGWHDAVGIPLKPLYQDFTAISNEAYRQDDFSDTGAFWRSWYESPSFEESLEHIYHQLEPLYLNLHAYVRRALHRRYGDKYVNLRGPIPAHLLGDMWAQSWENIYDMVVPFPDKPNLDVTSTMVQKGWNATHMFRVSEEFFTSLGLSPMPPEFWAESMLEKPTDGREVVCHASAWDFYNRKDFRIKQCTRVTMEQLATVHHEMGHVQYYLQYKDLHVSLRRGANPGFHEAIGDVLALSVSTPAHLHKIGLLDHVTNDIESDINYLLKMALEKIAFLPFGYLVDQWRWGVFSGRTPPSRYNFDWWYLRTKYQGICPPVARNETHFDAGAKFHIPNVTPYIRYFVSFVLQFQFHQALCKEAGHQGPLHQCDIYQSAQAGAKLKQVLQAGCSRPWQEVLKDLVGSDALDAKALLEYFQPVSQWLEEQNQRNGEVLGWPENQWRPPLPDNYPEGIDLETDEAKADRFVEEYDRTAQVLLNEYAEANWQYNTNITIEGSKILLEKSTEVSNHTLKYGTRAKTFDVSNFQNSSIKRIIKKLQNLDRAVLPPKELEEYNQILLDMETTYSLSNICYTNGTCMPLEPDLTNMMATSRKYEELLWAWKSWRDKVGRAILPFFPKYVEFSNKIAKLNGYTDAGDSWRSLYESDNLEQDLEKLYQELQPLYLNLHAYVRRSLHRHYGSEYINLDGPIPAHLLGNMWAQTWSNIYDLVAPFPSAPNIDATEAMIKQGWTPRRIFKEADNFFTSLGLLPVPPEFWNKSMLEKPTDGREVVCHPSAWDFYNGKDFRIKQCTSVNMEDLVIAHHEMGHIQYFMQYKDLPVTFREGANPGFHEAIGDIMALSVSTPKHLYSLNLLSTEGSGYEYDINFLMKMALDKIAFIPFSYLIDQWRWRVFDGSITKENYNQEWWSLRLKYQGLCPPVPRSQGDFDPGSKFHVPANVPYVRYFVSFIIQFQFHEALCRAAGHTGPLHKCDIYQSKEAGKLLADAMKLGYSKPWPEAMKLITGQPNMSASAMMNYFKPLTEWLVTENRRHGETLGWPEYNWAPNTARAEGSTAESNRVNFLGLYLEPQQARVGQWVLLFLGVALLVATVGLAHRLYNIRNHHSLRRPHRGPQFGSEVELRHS
# TF antigen = settings: cited from earlier work
# ACE [11] = target: ACE (Homo sapiens, UniProt P12821); design: randomly assigned 9,297 high-risk patients; from tissue; host or cells: patients, in vivo; settings: 5 mg/day, vs placebo; cited from earlier work
# metallothionein (MT) [12] = settings: cited from earlier work
# metallothionein (MT) [13] = settings: non-transformed hepatocytes; cited from earlier work
# [14] = system: LS 174T colon cancer cells; settings: after the fourth day of treatment; cited from earlier work
# metallothionein (MT) [15] = settings: cited from earlier work; remark: listed apart in the source
# PFK-2/FBPase-2 = settings: diabetic animals, up to 15 days; cited from earlier work
# [16] = obese Zucker rats; cited from earlier work
# [17] = system: obese (fa/fa) Zucker rats; settings: chronic ICV microinjection; cited from earlier work
# [18] = system: genetically obese ob/ob or db/db mice; settings: low dose injection, for several hours; cited from earlier work
# [19] = target: T2, long form leptin receptor (Rattus norvegicus, UniProt Q62959); settings: CHO cells; cited from earlier work
# T2 construct: expressed in transfected cells; host or cells: Chinese hamster ovary (CHO) cells
# T2 sequence (Q62959 22-1162): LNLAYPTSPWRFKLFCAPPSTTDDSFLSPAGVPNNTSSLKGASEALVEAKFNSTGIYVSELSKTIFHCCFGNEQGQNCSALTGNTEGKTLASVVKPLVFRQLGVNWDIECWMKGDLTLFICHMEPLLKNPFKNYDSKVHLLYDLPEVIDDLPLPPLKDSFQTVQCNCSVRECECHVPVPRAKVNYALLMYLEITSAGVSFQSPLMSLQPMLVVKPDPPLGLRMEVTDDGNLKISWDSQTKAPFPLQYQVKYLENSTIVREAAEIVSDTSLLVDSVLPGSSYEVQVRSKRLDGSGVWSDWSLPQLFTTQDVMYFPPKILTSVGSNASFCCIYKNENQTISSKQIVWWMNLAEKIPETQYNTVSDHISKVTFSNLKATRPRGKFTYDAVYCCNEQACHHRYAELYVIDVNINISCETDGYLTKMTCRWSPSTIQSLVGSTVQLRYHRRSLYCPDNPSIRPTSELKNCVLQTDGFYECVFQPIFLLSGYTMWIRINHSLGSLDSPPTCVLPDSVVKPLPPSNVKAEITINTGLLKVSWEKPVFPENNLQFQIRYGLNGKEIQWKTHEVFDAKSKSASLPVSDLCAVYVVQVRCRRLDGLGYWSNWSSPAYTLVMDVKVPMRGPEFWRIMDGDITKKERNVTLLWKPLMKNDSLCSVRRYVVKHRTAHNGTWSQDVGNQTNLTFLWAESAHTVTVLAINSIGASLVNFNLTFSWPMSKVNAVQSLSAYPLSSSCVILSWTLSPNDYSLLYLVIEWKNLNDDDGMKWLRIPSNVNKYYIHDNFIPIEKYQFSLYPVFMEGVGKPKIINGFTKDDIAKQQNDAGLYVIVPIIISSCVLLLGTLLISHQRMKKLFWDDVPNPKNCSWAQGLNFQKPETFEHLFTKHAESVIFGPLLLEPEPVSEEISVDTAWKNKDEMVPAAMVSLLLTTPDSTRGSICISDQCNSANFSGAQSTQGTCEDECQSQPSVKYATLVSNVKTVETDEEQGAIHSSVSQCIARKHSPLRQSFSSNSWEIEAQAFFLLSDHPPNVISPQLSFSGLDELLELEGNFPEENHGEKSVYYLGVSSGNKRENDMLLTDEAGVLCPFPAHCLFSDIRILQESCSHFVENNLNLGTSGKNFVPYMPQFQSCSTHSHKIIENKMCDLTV
# PTP1B = PTP1B (Homo sapiens, UniProt P18031); settings: Huyer 1997; cited from earlier work
# PTP1B, sequence (P18031 whole entry, species assumed): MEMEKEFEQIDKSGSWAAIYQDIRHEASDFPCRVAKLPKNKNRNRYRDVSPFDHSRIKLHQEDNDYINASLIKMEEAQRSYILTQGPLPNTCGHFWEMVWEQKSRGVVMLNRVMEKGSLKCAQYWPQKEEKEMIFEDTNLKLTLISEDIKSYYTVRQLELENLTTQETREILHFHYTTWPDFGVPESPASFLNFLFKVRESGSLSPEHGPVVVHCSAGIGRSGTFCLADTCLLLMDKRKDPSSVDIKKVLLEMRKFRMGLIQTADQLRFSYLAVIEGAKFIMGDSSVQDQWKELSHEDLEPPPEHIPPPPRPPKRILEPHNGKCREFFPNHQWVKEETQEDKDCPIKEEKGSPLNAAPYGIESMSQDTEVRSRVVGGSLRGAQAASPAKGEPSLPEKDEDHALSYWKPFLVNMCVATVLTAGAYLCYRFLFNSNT
# ACE (Homo sapiens, UniProt P12821), sequence (P12821 30-1306): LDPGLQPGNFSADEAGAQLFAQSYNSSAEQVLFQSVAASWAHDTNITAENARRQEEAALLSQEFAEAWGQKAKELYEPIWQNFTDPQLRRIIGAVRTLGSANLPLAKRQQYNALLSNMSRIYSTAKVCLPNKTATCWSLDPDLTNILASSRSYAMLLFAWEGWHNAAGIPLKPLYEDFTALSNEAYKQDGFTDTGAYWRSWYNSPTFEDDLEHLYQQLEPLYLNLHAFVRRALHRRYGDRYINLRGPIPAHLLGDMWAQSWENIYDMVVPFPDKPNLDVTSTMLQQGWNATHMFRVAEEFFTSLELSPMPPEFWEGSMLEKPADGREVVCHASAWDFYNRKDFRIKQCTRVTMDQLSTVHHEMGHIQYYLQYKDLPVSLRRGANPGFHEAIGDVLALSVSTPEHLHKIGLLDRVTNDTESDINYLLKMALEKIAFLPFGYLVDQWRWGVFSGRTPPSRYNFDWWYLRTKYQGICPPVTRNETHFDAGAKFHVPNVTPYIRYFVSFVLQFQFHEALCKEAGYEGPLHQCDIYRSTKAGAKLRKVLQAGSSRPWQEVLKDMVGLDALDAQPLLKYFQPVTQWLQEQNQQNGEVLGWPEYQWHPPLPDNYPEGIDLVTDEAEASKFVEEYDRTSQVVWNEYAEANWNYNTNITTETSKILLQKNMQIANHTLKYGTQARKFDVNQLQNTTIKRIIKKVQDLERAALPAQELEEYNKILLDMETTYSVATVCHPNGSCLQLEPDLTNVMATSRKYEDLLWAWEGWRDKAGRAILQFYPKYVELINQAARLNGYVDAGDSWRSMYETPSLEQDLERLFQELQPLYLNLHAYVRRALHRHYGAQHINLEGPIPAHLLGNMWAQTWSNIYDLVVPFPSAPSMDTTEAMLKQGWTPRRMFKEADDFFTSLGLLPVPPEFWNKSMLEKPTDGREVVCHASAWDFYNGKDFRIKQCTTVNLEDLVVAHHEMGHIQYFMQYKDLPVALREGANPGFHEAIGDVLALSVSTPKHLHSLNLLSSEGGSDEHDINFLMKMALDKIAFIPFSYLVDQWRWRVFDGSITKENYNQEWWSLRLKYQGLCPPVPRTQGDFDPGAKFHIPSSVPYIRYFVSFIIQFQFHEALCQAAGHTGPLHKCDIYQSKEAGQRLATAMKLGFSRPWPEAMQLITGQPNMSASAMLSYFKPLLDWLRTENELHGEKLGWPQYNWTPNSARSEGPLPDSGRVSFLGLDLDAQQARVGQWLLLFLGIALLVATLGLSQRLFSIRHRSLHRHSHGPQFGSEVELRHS
compound,measurement,setting,value
"CCCCCC1OC1CC=CCC=CCC=CCCCC(=O)O (stereo not shown) [14,15-EET, 14,15-epoxyeicosatrienoic acid]",ERK1 and ERK2 phosphorylation,ERK1 and ERK2,stimulated ERK1 and ERK2 phosphorylation
"CCC(=O)O[C@]1(C(=O)SCF)[C@H](C)C[C@H]2[C@@H]3C[C@H](F)C4=CC(=O)C=C[C@]4(C)[C@@]3(F)[C@@H](O)C[C@@]21C [FP, Fluticasone propionate]",NF-κB activation,NF-κB,decreases NF-κB activation
same,number of antigen-presenting ‘Langerhans’ cells in nasal mucosa,[1],decreased the number of the antigen-presenting ‘Langerhans’ cells
same,number of DC in asthma,DC,decreased the number of DC in asthma
"CCCCCCCCCCCCCC(=O)O[C@@H]1[C@@H](C)[C@@]2(O)[C@@H](C=C(CO)C[C@]3(O)C(=O)C(C)=C[C@@H]23)[C@@H]2C(C)(C)[C@]12OC(C)=O [TPA, phorbol 12-myristate 13-acetate]",phosphorylation of ERK1/2,ERK1/2,phosphorylation of ERK1/2
same,DNase-I hypersensitivity of the third intron enhancer of the TNFα gene,[2],enhanced
same,mouse AR mRNA,AR gene [3]; Kumar 1998,increase in mouse AR mRNA
same,Effect on [mRNAAR],"AR gene [3]; Sertoli, 19 days old rats",↓[mRNAAR]
same,increase in ERK activity,[4]; 1 h,6 fold
same,increase in ERK activity,[4]; 3 h,4 fold
same,ML-1 proliferation,"[4]; 3-day 0.3 ng/ml, then 3 days without TPA",cease proliferation
same,hair growth,"anagen hair follicles; 6 days culture, A 23187 2 μM, TPA 1 μM, IL-1 100 ng per ml (Hoffmann 1997)",significantly inhibited hair growth
same,IC50,"anagen hair follicles; suspension culture (Harmon 1995), read-out: inhibition of total cumulative hair follicle growth",1 nM
same,ERK phosphorylation,ERK [5]; Jurkat cells,increased ERK phosphorylation
same,Effect on [ERK^phos],ERK [6],↑[ERK^phos]
Cc1occc(=O)c1[O-].Cc1occc(=O)c1[O-].[O]=[V+2] [bis(maltolato)oxovanadium],weight gain,[7],decreased weight gain
C/C=C/C/C=C/CCC(=O)[C@H]1O[C@H]1C(N)=O [cerulenin],virus production,Rous sarcoma virus (RSV),inhibited
same,virus production,[8],drastically decreased
C[C@@H]1C[C@@H]([C@H](O)CC2CC(=O)NC(=O)C2)C(=O)[C@@H](C)C1 [cycloheximide],increase in AR mRNA,AR gene [9],1.7±0.4 fold
same,ERK phosphorylation,ERK [5]; oocytes,decreased ERK phosphorylation
same,AGE-alb induced TF mRNA,TF,completely suppressed
CCOC(=O)[C@H](CCc1ccccc1)N[C@@H](C)C(=O)N1CCC[C@H]1C(=O)O [enalapril],total lesion area compared to placebo,ACE [10],no significant decrease in lesion area
same,plasma TF antigen level,TF antigen; day 3,205±14
same,plasma TF antigen level,TF antigen; day 28,169±13
same,"changes in mean absolute diameter, minimum absolute diameter, and percent diameter stenosis",ACE [11],no significant difference
CCCC(=O)[O-].[Na+] [sodium butyrate],phosphorylation of ERK1/2,ERK1/2,phosphorylation of ERK1/2
same,MT mRNA levels,"metallothionein (MT) [12]; OC15 EC, OC15 END cells",increased MT mRNA levels
same,increase in MT mRNA,metallothionein (MT) [12]; OC15 carcinoma cells,20 fold
same,increase in MT mRNA,metallothionein (MT) [13],2-4 fold
same,growth of LS 174T cells,[14],significant growth inhibition
same,MT synthesis,metallothionein (MT) [15],dose-dependent increase
"[O]=[V]([O-])([O-])[O-] [vanadate, Vanadate (VO4^−3)]",liver PFK-2/FBPase-2 mRNA content,PFK-2/FBPase-2,progressive increase
same,ERK activation,ERK [5]; as general PTP inhibitors,activate ERK
same,decrease in plasma glucose,[16],36%
same,decrease in plasma insulin,[16],80%
"IL-1β: human recombinant IL-1β, an ERK agent",decrease in nighttime food intake,[17],66.1%
same,growth of isolated scalp hair,anagen hair follicles; Xiong 1997,growth inhibition
same,glucose blood levels,[18],normalization of glucose blood levels
leptin: an ERK agent that binds the long form leptin receptor,tyrosine phosphorylation of STAT3 and ERK,[19],increased tyrosine phosphorylation of STAT3 and ERK
pervanadate,PTP1B activity,PTP1B,inhibition
